Results reported in patent US20090131508A1, “Use of 2-Oxo-1-Pyrrolidone Derivatives for the Preparation of a Drug” (UCB PHARMA, S.A., priority 2005, published 2009).
Entries after “also recorded” stand apart in the source; their conditions may differ. Like-named read-outs stand apart in the source and are kept apart here.

How the values were obtained:
[1] = test system: spontaneous spike-and-wave discharges (SWDs); assay: spike-and-wave discharges in Genetic Absence Epilepsy Rats from Strasbourg; assay type: in vivo, male rats from the Genetic Absence Epilepsy Rat Strain; conditions: 95% confidence interval in parentheses
Description: Male rats from the Genetic Absence Epilepsy Rat Strain are implanted with four platinum electrodes into the left and right frontal cortex and left and right occipital cortex, under pentobarbital anaesthesia. Cortical, spontaneous spike-and-wave discharges (SWDs) are recorded bilaterally from the rats placed into Plexiglass boxes, and prevented for falling asleep by gentle sensory stimulation. After a 20-min habituation period, the rats are injected i.p. with either saline or different doses of Brivaracetam and the EEG recorded continuously over consecutive 20-min intervals up to 120 min. The cumulative duration of the SWDs is calculated.

[2] = test system: maximal electroshock seizures (MES); assay: maximal electroshock seizures (MES) in mice; assay type: in vivo, male NMRI mice; conditions: i.p. -30 min, 95% confidence interval in parentheses
Description: (§1) The effect of Brivaracetam against maximal electroshock seizures (MES) and pentylenetetrazol (PTZ) seizures is evaluated in male NMRI mice (20-30 g; N=10 per group). MES is induced through corneal electrodes delivering a current of 50 mA for a duration 0.2 s inducing tonic hind limb extension in 100% of saline-treated animals.
(§2) PTZ is administered at a dose of 89 mg/kg s.c. which represents a dose inducing clonic convulsions of all four extremities in 97% of saline-treated animals. The mice are pre-treated with either saline or different doses of Brivaracetam (i.p. adm., −30 min.) and the proportion of mice protected against seizures is recorded.

[3] = test system: photoparoxysmal EEG response (PPR); assay: photoparoxysmal EEG response (PPR) study in photosensitive epileptic subjects; assay type: in vivo, human (Caucasian subjects with photosensitive epilepsy); conditions: for Duration of response, Median (Range) / Time to first response, Median (Range): eye-closure condition, response = SPR change of at least 3 frequency steps
Description: (§3) The aim of the placebo-controlled, single blind, multi-centre study is to explore the photoparoxysmal EEG (Electroencephalogram) response (PPR) in photosensitive epileptic subjects after one single oral dose (10, 20, 40 and 80 mg) of brivaracetam (BRV).
(§4) In the study, nineteen Caucasian subjects with photosensitive epilepsy (15 females, 4 males) with stable PPR in at least one eye condition (eyes open, eyes closed, eye closure) are enrolled. During a 3-day period, subjects underwent standardized intermittent photic stimulation (IPS) at different frequencies to define the standard photosensitivity range (SPR) in frequency steps per subject at fixed time points over the day: predose (−0.5 h) and postdose (1, 2, 4, 6, 8, 24, 28, 32, 48, and 72 h). After the placebo baseline day (day 1), single oral doses of BRV are given, starting at 80 mg, with subsequent lowering or increasing of the dose depending on the results per 4 subjects.
A total of 18 subjects are evaluable. One subject appeared to be no longer sensitive on the baseline day and is therefore not evaluable. Under placebo administration almost no SPR changes from pre-dose in “eye-closure” condition are observed. Important SPR changes or even complete abolishment of the photosensitivity windows are observed after BRV administration at all tested doses.
Descriptive statistics (N, Median (range)) for time to first response and duration of response in “eye-closure” condition are given in the Table 3 below. Response is defined as a SPR change of at least 3 frequency steps.

audiogenic seizures = audiogenic seizures in sound-sensitive mice; assay type: in vivo, male genetically sound-sensitive mice; conditions: i.p. -30 min, 95% confidence interval in parentheses
Description: Brivaracetam is tested in male genetically sound-sensitive mice (16-28 g; N=10 per group) responding with wild running, clonic and tonic convulsions to an acoustic stimulation. Audiogenic seizures are induced by an acoustic stimulus (90 dB, 10-20 kHz) applied for 30 s. The mice are pre-treated with either saline or different doses of Brivaracetam (i.p. adm., −30 min.) and the proportion of mice protected against both clonic and tonic convulsions is used as the end point to assess anticonvulsant activity.

kindled seizures = assay: amygdala kindling in rats; assay type: in vivo, male Sprague-Dawley rats; conditions: i.p. -60 min, 95% confidence interval in parentheses
Description: The effect of brivaracetam on kindled seizures is evaluated in male Sprague-Dawley rats (250-350 g) implanted with a bipolar stimulation/recording electrode into the right basolateral amygdala [AP-2.3, L-4.8, V-8.5 (Paxinos and Watson, 1982)], under pentobarbital anaesthesia. Kindling is induced by once daily stimulation, 5 days per week, with 500 μA monophasic square wave pulses, 50 Hz for 1 s (Löscher et al., 1986). The animals are considered kindled after the appearance of at least 10 consecutive stage 4 or 5 seizures according to the scale of Racine (Racine, 1972). Fully kindled rats (N=8 per group) are stimulated once with the same stimulation parameters as above after administration of saline (i.p., −60 min).
This procedure is repeated two days later, after pre-treatment with either saline or different doses of Brivaracetam (i.p., −60 min).
The behavioural effect of stimulation is graded according to the scale of Racine and the proportion of rats protected against generalised motor seizures (stage <3) is recorded.

[4] = test system: pentylenetetrazol (PTZ) seizures; assay: pentylenetetrazol (PTZ) seizures in mice; assay type: in vivo, male NMRI mice; conditions: PTZ 89 mg/kg s.c., i.p. -30 min, 95% confidence interval in parentheses
Description: as §1, §2

[5] = plasma levels of brivaracetam in the PPR study; assay type: in vivo; conditions: human
Description: as §3, §4
Median time to first response is 0.5 hours for all doses, and median duration of response is approximately 28 hours after 10, 20, or 40 mg BRV. The median duration is longer after 80 mg BRV (59.5 h). Time to maximal reduction in SPR is dose related: 1.5, 1.0, 1.0, and 0.5 hours, respectively, for 10, 20, 40, and 80 mg BRV. Plasma levels of brivaracetam (BRV) reach a peak at approximately 2.0 hours. T1/2 is about 8.5 hours. Effect of BRV is still frequently observable with BRV plasma levels below the lower level of quantification.

[6] = 80 mg single oral dose, listed as BRV
[7] = all single doses (10, 20, 40, and 80 mg)

Structure (SMILES): CCC[C@@H]1CC(=O)N([C@@H](CC)C(N)=O)C1 [Brivaracetam, (2S)-2-[(4R)-2-oxo-4-propylpyrrolidinyl]butanamide]
- Protective effect ED50 value, duration of spike-and-wave discharges over 2 hours [1]: 2.6 (0.85-8.1) mg/kg i.p.
- Protective effect ED50 value, tonic hind limb extension [2]: 113 (89-136) mg/kg i.p.
- Time to maximal reduction in SPR ([3]; 10 mg single oral dose): 1.5 h
- Duration of response, Median (Range) ([3]; 10 mg single oral dose): 29.3 (7.5; 31.5) h
- Time to first response, Median (Range) ([3]; 10 mg single oral dose): 0.5 (0.5; 1.0) h
- Patients with abolishment of EEG response ([3]; 10 mg single oral dose, reduction in the fourth patient): three out of four
- Time to maximal reduction in SPR ([3]; 20 mg single oral dose): 1.0 h
- Duration of response, Median (Range) ([3]; 20 mg single oral dose): 27.5 (23.0; 31.5) h
- Time to first response, Median (Range) ([3]; 20 mg single oral dose): 0.5 (0.5; 1.0) h
- EEG response in all (evaluable) subjects ([3]; 20 mg single oral dose, listed as BRV): abolished; also recorded: complete suppression
- Time to maximal reduction in SPR ([3]; 40 mg single oral dose): 1.0 h
- Duration of response, Median (Range) ([3]; 40 mg single oral dose): 27.0 (23.5; 47.5) h
- Time to first response, Median (Range) ([3]; 40 mg single oral dose): 0.5 (0.5; 1.0) h
- Time to maximal reduction in SPR ([3]; 80 mg single oral dose): 0.5 h
- Duration of response, Median (Range) ([3]; 80 mg single oral dose): 59.5 (27.5; 71.5) h
- Time to first response, Median (Range) ([3]; 80 mg single oral dose): 0.5 (0.5; 0.5) h
- Duration of response, Median (Range) [3, 6]: 59.5 h
- EEG response in all (evaluable) subjects [3, 6]: abolished; also recorded: complete suppression
- Median duration of response ([3]; after 10, 20, or 40 mg single oral dose): approximately 28 hours
- Median time to first response ([3]; all doses (10, 20, 40, 80 mg single oral dose)): 0.5 h
- Safety and tolerability ([3]; all doses (10, 20, 40, 80 mg single oral dose), human subjects): safe and well tolerated
- Subjects with abolished photoparoxysmal EEG response [3, 7]: 78%
- Subjects with reduced photoparoxysmal EEG response [3, 7]: 94%
- Protective effect ED50 value, clonic convulsions (audiogenic seizures): 2.4 (1.4-4.0) mg/kg i.p.
- Protective effect ED50 value, tonic convulsions (audiogenic seizures): 1.4 (0.9-2.1) mg/kg i.p.
- Protective effect ED50 value, secondary generalised seizures (kindled seizures): 44 (24-84) mg/kg i.p.
- Protective effect ED50 value, clonic convulsions [4]: 30 (10-87) mg/kg i.p.
- half-life ([5]; both sexes, plasma, single oral dose, read-out: T1/2 (converted)): ~8.5 h
- half-life ([5]; in vivo, stated as basis of expected effect duration, read-out: half-life of the compound (converted)): ~7.7 h
- Time of peak plasma levels ([5]; single oral dose): approximately 2.0 hours
